Measurements from patent publication US20230109801A1 (Blue Oak Pharmaceuticals, Inc., priority 2020, published 2023).
Counter-ions that a name gives are not always drawn.

System: mice
Assay: SmartCube in vivo neuropharmacological behavioral assay
Procedure, shortened: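 Mice dosed i.p. with compound in Pharmasolve (NMP) 15 min before automated video capture of behavior; doses e.g. 0.3–30 mg/kg. Behavioral signature compared with reference-drug classes, giving per-class probability (0–100, 0 = LOQ); MED = lowest dose with ≥50% total activity.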

[1] = SmartCube, i.p. 15 min before test, at the MED

CC1=CC2c3ccccc3C1N2C(C)C (stereo not shown) [Compound 62, 9-Methyl-11-(propan-2-yl)-11-azatricyclo[6.2.1.0^2,7]undeca-2,4,6,9-tetraene hydrochloride]
minimal effective dose (Mus musculus, ip, dose having 50% or more total activity in SmartCube, i.p., read-out: MED (minimal effective dose)): 1 to 10 mg/kg | AD: antidepressant, percent probability [1]: ++ (5% ≤ X < 25%) | AG: analgesic, percent probability [1]: ++ (5% ≤ X < 25%) | AP: antipsychotic, percent probability [1]: + (LOQ ≤ X < 5%) | AX: anxiolytic, percent probability [1]: ++ (5% ≤ X < 25%) | CE: cognitive enhancer, percent probability [1]: + (LOQ ≤ X < 5%) | HA: hallucinogenic, percent probability [1]: + (LOQ ≤ X < 5%) | MS: mood stabilizer, percent probability [1]: + (LOQ ≤ X < 5%) | PS, percent probability [1]: + (LOQ ≤ X < 5%) | SD: sedative hypnotic, percent probability [1]: + (LOQ ≤ X < 5%) | SE: side effects, percent probability [1]: + (LOQ ≤ X < 5%) | UN: uncharacterized CNS activity, percent probability [1]: ++ (5% ≤ X < 25%) | XG: anxiogenic, percent probability [1]: + (LOQ ≤ X < 5%)
